Measured values reported in ChEMBL document CHEMBL6083234, “Discovery of novel 1,4-dicarbonylthiosemicarbazides as DNA gyrase inhibitors for the treatment of MRSA infection” (Eur J Med Chem, 2024).

Assays:
Staphylococcus aureus = assay: Antibacterial activity against Staphylococcus aureus ATCC 29213 assessed as inhibition of bacterial growth incubated for 18 to 24 hrs by broth microdilution method; format: functional; settings: time 18-24 hrs
[1] = Cytotoxicity against HUVEC cells assessed as reduction in cell viability incubated for 48 hrs by CCK8 assay; format: toxicity, cell-based; settings: human
[2] = Selectivity index, ratio of CC50 for cytotoxicity against human HepG2 cells to MIC for antibacterial activity against Staphylococcus aureus ATCC 29213; format: toxicity, cell-based; settings: read-out: Selectivity Index
[3] = Cytotoxicity against human HepG2 cells assessed as reduction in cell viability incubated for 48 hrs by CCK8 assay; format: toxicity, cell-based
[4] = Selectivity index, ratio of CC50 for cytotoxicity against HUVEC cells to MIC for antibacterial activity against Staphylococcus aureus ATCC 29213; format: toxicity, cell-based; settings: human, read-out: Selectivity Index
DNA gyrase = DNA gyrase (Staphylococcus aureus, UniProt P0A0K8+P20831); assay: Inhibition of Staphylococcus aureus DNA gyrase ATP hydrolysis activity using pBR322 DNA as substrate incubated for 30 mins in presence of ATP by ADP-Glo reagent based assay; format: protein-complex assay
DNA gyrase, sequence (P0A0K8 whole entry): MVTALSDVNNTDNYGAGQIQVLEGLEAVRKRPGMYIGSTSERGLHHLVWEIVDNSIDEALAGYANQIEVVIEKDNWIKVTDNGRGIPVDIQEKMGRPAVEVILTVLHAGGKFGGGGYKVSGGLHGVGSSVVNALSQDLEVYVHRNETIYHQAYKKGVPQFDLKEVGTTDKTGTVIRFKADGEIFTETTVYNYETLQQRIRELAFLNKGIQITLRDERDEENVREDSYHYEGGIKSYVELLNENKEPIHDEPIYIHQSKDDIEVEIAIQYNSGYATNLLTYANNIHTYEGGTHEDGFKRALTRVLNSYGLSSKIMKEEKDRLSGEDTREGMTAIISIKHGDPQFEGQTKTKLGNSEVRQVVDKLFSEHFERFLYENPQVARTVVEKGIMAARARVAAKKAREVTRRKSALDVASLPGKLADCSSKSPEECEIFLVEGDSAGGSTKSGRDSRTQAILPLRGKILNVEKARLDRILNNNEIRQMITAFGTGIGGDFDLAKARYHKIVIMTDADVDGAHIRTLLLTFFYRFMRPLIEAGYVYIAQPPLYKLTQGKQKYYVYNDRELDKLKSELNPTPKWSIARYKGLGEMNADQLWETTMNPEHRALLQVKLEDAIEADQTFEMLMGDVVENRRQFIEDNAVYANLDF
DNA gyrase, sequence (P20831 whole entry): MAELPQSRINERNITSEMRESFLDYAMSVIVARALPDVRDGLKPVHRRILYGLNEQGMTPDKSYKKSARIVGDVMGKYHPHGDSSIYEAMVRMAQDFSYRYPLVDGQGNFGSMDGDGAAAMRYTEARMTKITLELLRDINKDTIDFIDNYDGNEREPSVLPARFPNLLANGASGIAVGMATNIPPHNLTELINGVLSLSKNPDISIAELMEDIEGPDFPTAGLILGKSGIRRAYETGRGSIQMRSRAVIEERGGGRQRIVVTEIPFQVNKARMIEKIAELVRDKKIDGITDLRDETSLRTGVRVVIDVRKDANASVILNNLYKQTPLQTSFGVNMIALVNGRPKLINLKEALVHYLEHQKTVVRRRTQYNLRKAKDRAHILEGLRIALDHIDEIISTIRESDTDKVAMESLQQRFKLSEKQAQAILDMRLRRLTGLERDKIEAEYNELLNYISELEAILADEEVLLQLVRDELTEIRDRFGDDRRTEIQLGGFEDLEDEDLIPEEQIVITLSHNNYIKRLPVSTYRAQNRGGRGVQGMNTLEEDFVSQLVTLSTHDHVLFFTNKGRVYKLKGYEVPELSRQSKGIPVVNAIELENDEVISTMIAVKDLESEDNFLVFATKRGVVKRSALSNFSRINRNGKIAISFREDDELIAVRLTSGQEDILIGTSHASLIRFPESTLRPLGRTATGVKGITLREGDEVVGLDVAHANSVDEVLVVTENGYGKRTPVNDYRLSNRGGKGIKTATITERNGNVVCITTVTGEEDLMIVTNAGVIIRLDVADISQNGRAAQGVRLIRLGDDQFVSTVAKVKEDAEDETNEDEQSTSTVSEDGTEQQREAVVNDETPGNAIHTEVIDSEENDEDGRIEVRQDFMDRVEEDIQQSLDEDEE

CCCCCOc1ccc(C(=O)NNC(=S)NC(C)=O)nc1
MIC (Staphylococcus aureus): 25 µg/mL

CCCCCOc1ccc(CCC(=O)NNC(=S)NC(C)=O)cc1
MIC (Staphylococcus aureus): > 100 µg/mL

CC(=O)NC(=S)NNC(=O)c1ccc(Oc2ccccc2)cc1
MIC (Staphylococcus aureus): 3.12 µg/mL

CCCCCCOc1ccc(C(=O)NNC(N)=S)cc1
MIC (Staphylococcus aureus): > 100 µg/mL

CC(=O)NC(=S)NNC(=O)c1ccccc1
MIC (Staphylococcus aureus): 50 µg/mL

CCCCCOc1ccc(C(=O)NNC(=S)NC(=O)C(C)C)cc1
MIC (Staphylococcus aureus): 12.5 µg/mL

CCC1CCC(c2ccc(C(=O)NNC(=S)NC(C)=O)cc2)CC1 (stereo not given)
CC50 at 48 h [1]: 67 nM | MIC (Staphylococcus aureus): 0.58 µM | selectivity ratio [2]: 0.05 | CC50 at 48 h [3]: 26 nM | selectivity ratio [4]: 0.12 | IC50 (DNA gyrase): 230 nM

CC(=O)NC(=S)NNC(=O)c1ccc(OCCCC(C)C)cc1
MIC (Staphylococcus aureus): 3.12 µg/mL

CCCCCOc1ccc(C(=O)NNC(=S)NC(=O)c2cccs2)cc1
MIC (Staphylococcus aureus): 3.12 µg/mL

CCCCCCOc1ccc(C(=O)NN(C)C(=S)NC(C)=O)cc1
MIC (Staphylococcus aureus): > 100 µg/mL

CCCCCOc1ccc(C(=O)NNC(=S)NC(C)=O)c(C)c1
MIC (Staphylococcus aureus): 3.12 µg/mL

CCCCCOc1ccc(C(=O)NNC(=S)NC(C)=O)cc1O
MIC (Staphylococcus aureus): 25 µg/mL

CC(=O)NC(=S)NNC(=O)c1ccc2ccccc2c1
MIC (Staphylococcus aureus): 6.25 µg/mL

CC(=O)NC(=S)NNC(=O)c1ccccc1O
MIC (Staphylococcus aureus): 50 µg/mL

CCCCCOc1ccc(C(=O)NNC(=S)NC(=O)CCC(=O)OC)cc1
MIC (Staphylococcus aureus): 12.5 µg/mL

CCCCCCOc1ccc(CNNC(=S)NCC)cc1
MIC (Staphylococcus aureus): > 100 µg/mL

CCCCCOc1ccc(C(=O)NNC(=S)NC(=O)Cc2ccccc2)cc1
MIC (Staphylococcus aureus): > 100 µg/mL

CC(=O)NC(=S)NNC(=O)c1ccc(C2CCCCC2)cc1
CC50 at 48 h [1]: 790 nM | MIC (Staphylococcus aureus): 1.22 µM | selectivity ratio [2]: 0.1 | CC50 at 48 h [3]: 120 nM | selectivity ratio [4]: 0.65 | IC50 (DNA gyrase): 1890 nM

CCCCCOc1ccc(C(=O)NC(=S)NNC(C)=O)cc1
MIC (Staphylococcus aureus): 3.12 µg/mL

CCC(=O)NC(=S)NNC(=O)c1ccccc1O
MIC (Staphylococcus aureus): 50 µg/mL

CCCCCCOc1ccc(-c2nnc(NC(C)=O)s2)cc1
MIC (Staphylococcus aureus): > 100 µg/mL

CC(=O)NC(=S)NNC(=O)c1ccc([N+](=O)[O-])cc1
MIC (Staphylococcus aureus): > 100 µg/mL

CCCCCCOc1ccc(C(=O)N(C)NC(=S)NC(C)=O)cc1
MIC (Staphylococcus aureus): > 100 µg/mL

CCCCCOc1ccc(C(=O)NNC(=S)NC(=O)c2ccc(C(=O)O)cc2)cc1
MIC (Staphylococcus aureus): > 100 µg/mL

COCCCOc1ccc(C(=O)NNC(=S)NC(C)=O)cc1
MIC (Staphylococcus aureus): > 100 µg/mL

CC(=O)NC(=S)NNC(=O)c1ccc(O)c(O)c1
MIC (Staphylococcus aureus): 100 µg/mL

CCCCCCCCCCCOc1ccc(C(=O)NNC(=S)NC(C)=O)cc1
MIC (Staphylococcus aureus): 100 µg/mL

CCCCCOc1ccc(C(=O)NNC(=S)NC(C)=O)cc1OCCCCC
MIC (Staphylococcus aureus): 6.25 µg/mL

CC(=O)O[C@H]1C(=O)[C@@]2(C)[C@H]([C@H](OC(=O)c3ccccc3)[C@]3(O)C[C@H](OC(=O)[C@H](O)[C@@H](NC(=O)c4ccccc4)c4ccccc4)C(C)=C1C3(C)C)[C@]1(OC(C)=O)CO[C@@H]1C[C@@H]2O [PACLITAXEL]
CC50 at 48 h [1]: 16 nM | CC50 at 48 h [3]: 10 nM

CCCCCCOc1ccc(C(=O)NNC(=O)NC(C)=O)cc1
MIC (Staphylococcus aureus): 100 µg/mL

CCC(=O)NC(=S)NNC(=O)c1ccccc1
MIC (Staphylococcus aureus): 50 µg/mL

CCCCCOc1ccc(C(=O)NNC(=S)NC(=O)C2CC2)cc1
MIC (Staphylococcus aureus): 6.25 µg/mL

CC(=O)NC(=S)NNC(=O)c1ccc(N2CCOCC2)cc1
MIC (Staphylococcus aureus): 100 µg/mL

CCCCCOc1ccc(C(=O)NNC(=S)NC(=O)CCC)cc1
MIC (Staphylococcus aureus): 12.5 µg/mL

CCCCCOc1ccc(CC(=O)NNC(=S)NC(C)=O)cc1
MIC (Staphylococcus aureus): 25 µg/mL

CCCOc1ccc(C(=O)NNC(=S)NC(C)=O)cc1
MIC (Staphylococcus aureus): 6.25 µg/mL

CCCCCOc1ccc(C(=O)NNC(=S)NC(=O)CC)cc1
MIC (Staphylococcus aureus): 1.56 µg/mL

CCCCCOc1ccc(C(=O)NNC(=S)NC(C)=O)c(OCCCCC)c1
MIC (Staphylococcus aureus): > 100 µg/mL

CC(=O)NC(=S)NNC(=O)c1cccc(-c2ccccc2)c1
MIC (Staphylococcus aureus): 3.12 µg/mL

CC(=O)NC(=S)NNC(=O)c1ccc(-c2ccccc2)cc1
MIC (Staphylococcus aureus): 1.56 µg/mL

CCCCCOc1ccc(C(=O)NNC(=S)NC(=O)c2ccc(C(=O)OC)cc2)cc1
MIC (Staphylococcus aureus): > 100 µg/mL

CCC(=O)NC(=S)NNC(=O)c1ccc(OC)cc1
MIC (Staphylococcus aureus): 25 µg/mL

CCCCCCOc1ccc(-c2nnc(NC(C)=O)o2)cc1
MIC (Staphylococcus aureus): > 100 µg/mL

CC(=O)NC(=S)NNC(=O)c1ccc(OC2CCCCC2)cc1
MIC (Staphylococcus aureus): 1.56 µg/mL

CCCCCOc1ccc(C(=O)NNC(=S)NC(=O)C2CCCC2)cc1
MIC (Staphylococcus aureus): 50 µg/mL

CCCCOc1ccc(C(=O)NNC(=S)NC(C)=O)cc1
MIC (Staphylococcus aureus): 1.56 µg/mL

CCCCCOc1cccc(C(=O)NNC(=S)NC(C)=O)c1
MIC (Staphylococcus aureus): > 100 µg/mL

CC(=O)NC(=S)NNC(=O)c1ccc(C2CC2)cc1
MIC (Staphylococcus aureus): 3.12 µg/mL

CCCCCCOc1ccc(C(=O)NNC(=S)NCC)cc1
MIC (Staphylococcus aureus): > 100 µg/mL

CCCCCOc1ccc(C(=O)NNC(=S)NC(=O)CCC(=O)O)cc1
MIC (Staphylococcus aureus): 50 µg/mL

CCCCCCOc1ccc(C(=O)NNC(=S)NC(C)=O)cc1
MIC (Staphylococcus aureus): 1.56 µg/mL | IC50 (DNA gyrase): 1010 nM

CCCCCOc1ccc(C(=O)NNC(=S)NS(C)(=O)=O)cc1
MIC (Staphylococcus aureus): > 100 µg/mL

Cc1ccc(C(=O)NNC(=S)NC(=O)CC(C)C)cc1
MIC (Staphylococcus aureus): 12.5 µg/mL
